Assay results as given in US11117904B2, “Compositions and methods for the delivery of therapeutics” (ViiV Healthcare Company, priority 2016, dated 2021).

What was measured:
[1] = Nanoparticle characterization by dynamic light scattering; format: physicochemical; conditions: upon derivatization of native drug into prodrug
Method: Nanoformulations were characterized for particle size, polydispersity index (PDI) and zeta potential by dynamic light scattering (FIG. 1). This was done using a Malvern Zetasizer, Nano Series Nano-ZS (Malvern Instruments Inc., Westborough, Mass.). Nanoparticle morphology was determined by scanning electron microscopy (SEM). Ultra performance liquid chromatography tandem mass-spectrometry (UPLC MS/MS) was used for drug quantitation. […] Further, the improved hydrophobicity of MDTG facilitated production of stable formulations with high drug loading capacity. Nanoformulations were characterized for particle size, polydispersity index (PDI) and zeta potential by dynamic light scattering (DLS) (Table 1). This was done using a Malvern Zetasizer, Nano Series Nano-ZS (Malvern Instruments Inc, Westborough, Mass.). Nanoparticle morphology was determined by scanning electron microscopy (SEM). UPLC MS/MS was used for drug quantitation. […] The improved hydrophobicity of MCAB facilitated production of stable formulations with high drug loading capacity.

HIV-1ADA = assay: Antiretroviral activity in MDM challenged with HIV-1ADA (RT activity, HIV-1 p24 staining); format: cell-based; conditions: MDM treated with 100 μM for 8 hours, challenged with HIV-1ADA at MOI 0.01; RT activity and p24
Method: MDM were treated with either 100 μM DTG, MDTG, P407-MDTG or FA-P407-MDTG for 8 hours. The cells were washed with PBS to remove excess of free drug and nanoparticles. The MDM were challenged with HIV-1ADA at a MOI of 0.01 infectious viral particles/cell for 18 hours on day 1, 5, 10 and 15. Progeny virion production was measured by reverse transcriptase (RT) activity in culture medium (Kalter et al. (1992) J. Clin. Microbiol., 30(4):993-995) (FIG. 2C). HIV-1 p24 protein antigen expression was assessed (Guo et al. (2014) J. Virol., 88(17):9504-9513). The MDM were washed with PBS and fixed with 4% paraformaldehyde for 15 minutes at room temperature. The cells were blocked using 10% BSA containing 1% Triton X-100 in PBS for 30 minutes at room temperature. Following blocking, cells were incubated with HIV-1 p24 mouse monoclonal antibodies (1:50; Dako, Carpinteria, Calif., USA) for overnight at 4° C., followed by 1 hour incubation at room temperature. […]
MDM were treated with either 100 μM CAB long acting parenteral (CAB-LAP), P407-CAB, P407-MCAB or FA-P407-MCAB for 8 hours. […] Progeny virion production was measured by reverse transcription (RT) activity in culture medium (Kalter et al. (1992) J. Clin. Microbiol., 30(4):993-995). HIV-1 p24 protein antigen expression was assessed (Guo et al. (2014) J. Virol., 88(17):9504-9513) (FIG. 4C). […]

[2] = tested on: human monocyte derived macrophages (MDM); assay: Uptake and retention of drug in human monocyte derived macrophages (HPLC); format: cell-based
Method: Human monocytes were cultured in macrophage colony stimulating factor containing cell culture medium for 7-10 days in order to differentiate into macrophages (Balkundi et al. (2011) Intl. J. Nanomed., 6:3393-3404; Nowacek et al. (2009) Nanomed., 4(8):903-917). The macrophages were incubated with a range of formulations and native drugs. At each time point, adherent MDM were washed three times with 1 mL of PBS, scraped into 1 mL of fresh PBS and pelleted by centrifugation at 950×g for 8 minutes. The cell pellet was reconstituted in 200 μl of high performance liquid chromatography (HPLC)-grade methanol and probe sonicated followed by centrifugation at 20,000×g for 20 minutes. The supernatant was analyzed for drug content using HPLC (FIG. 2A and FIG. 2B). […] Human monocytes were cultured in macrophage colony stimulating factor containing cell culture medium for 7-10 days in order to differentiate into macrophages (Balkundi et al. (2011) Intl. J. Nanomed., 6:3393-3404; Nowacek et al. (2009) Nanomed., 4(8):903-917). The macrophages were incubated with a range of formulations and native drugs. At each time point, adherent monocyte-derived macrophage (MDM) were washed three times with 1 mL of PBS, scraped into 1 mL of fresh PBS and pelleted by centrifugation at 950×g for 8 minutes. […] The supernatant was analyzed for drug content using HPLC (FIGS. 4A and 4B). […]

## CCCCCCCCCCCCCC(=O)Oc1c2n(cc(C(=O)NCc3ccc(F)cc3F)c1=O)C[C@@H]1OCC[C@@H](C)N1C2=O [MDTG]
[1]
  hydrophobicity: greatly improved
HIV-1ADA
  antiretroviral efficacy: significant enhancements
[2]; cellular retention in MDM
  MDM retention: significant enhancements

## CCCCCCCCCCCCCC(=O)Oc1c2n(cc(C(=O)NCc3ccc(F)cc3F)c1=O)CC1OCC(C)N1C2=O (centres unmarked) [MCAB]
[1]
  hydrophobicity: greatly improved
[2]; MDM, compared to CAB-LAP
  intracellular accumulation of the drug: significantly improved
